Here are results for two compounds from patent publication US9877945B2 (priority 2013, dated 2018).

The data set has as its system Clostridium perfringens strain 56. To be noted: for Number of birds with macroscopic necrotic enteritis lesions: lesion score 2 or more = positive; for Birds with macroscopic necrotic enteritis lesions, Total (%) (positive chicken in total) / Number of birds with macroscopic necrotic enteritis lesions, total: total of days 21-23.
[1] abbreviates: day 21, product on silica carrier in feed 5 / 2.5 / 2 kg/ton in weeks 1 / 2 / 3 (low conc for monobutyrate).
[2] abbreviates: day 22, product on silica carrier in feed 5 / 2.5 / 2 kg/ton in weeks 1 / 2 / 3 (low conc for monobutyrate).
[3] abbreviates: day 23, product on silica carrier in feed 5 / 2.5 / 2 kg/ton in weeks 1 / 2 / 3 (low conc for monobutyrate).
[4] abbreviates: product on silica carrier in feed 5 / 2.5 / 2 kg/ton in weeks 1 / 2 / 3 (low conc for monobutyrate).
Setting [5] is: product on silica carrier in feed at high conc 7.5 / 6 / 5.5 kg/ton in weeks 1 / 2 / 3.

Where two headings read alike, the source gives them in different places.

In the case of `CCCC(=O)OCC(O)CO` (centres unmarked) [glyceryl monobutyrate], the “Number of birds with macroscopic necrotic enteritis lesions” value under setting [1] is given as 5/9; the “Number of birds with macroscopic necrotic enteritis lesions” value (day 21, product on silica carrier in feed at high conc 7.5 / 6 / 5.5 kg/ton in weeks 1 / 2 / 3) is recorded as 4/9; the “Number of birds with macroscopic necrotic enteritis lesions” value under setting [2] is 3/9; the “Number of birds with macroscopic necrotic enteritis lesions” value (day 22, product on silica carrier in feed at high conc 7.5 / 6 / 5.5 kg/ton in weeks 1 / 2 / 3) is 5/9; the “Number of birds with macroscopic necrotic enteritis lesions” value under setting [3] was 2/10; the “Number of birds with macroscopic necrotic enteritis lesions” value (day 23, product on silica carrier in feed at high conc 7.5 / 6 / 5.5 kg/ton in weeks 1 / 2 / 3) was 3/8. Besides, where the note is “pen 3: higher concentration in feed (7.5 / 6 / 5.5 kg/ton)”, the “chickens died during the trial” value is recorded as 2. Moreover, the “Birds with macroscopic necrotic enteritis lesions, Total (%) (positive chicken in total)” value runs as follows: under setting [4], 36%; under setting [5], 46%. In addition, the “Number of birds with macroscopic necrotic enteritis lesions, total” value is 10/28 under setting [4] and 12/26 under setting [5].
For `CCCC(=O)OCC(COC(=O)CCC)OC(=O)CCC` [glyceryl tributyrate], the “Result in preventing Clostridium perfringens-induced necrotic enteritis compared with glyceryl monobutyrate at either concentration (FIG. 1)” value (added to the feed, P value <0.05 taken as significant) is recorded as “significantly better result”. In addition, the “Number of birds with macroscopic necrotic enteritis lesions” value was 3/9 under setting [1], 2/9 under setting [2] and 2/11 under setting [3]. Under setting [4], the “Birds with macroscopic necrotic enteritis lesions, Total (%) (positive chicken in total)” value came to 24%. In addition, under setting [4], the “Number of birds with macroscopic necrotic enteritis lesions, total” value is recorded as 7/29.
